# Source: a melting point compilation (Tetko et al.; mined from patent text by program, amines drawn as free bases though some values may be those of a salt)
row,Structure (SMILES),melting point
1,COC(=O)C(Cc1ccc(OS(=O)(=O)C(F)(F)F)c(OS(=O)(=O)C(F)(F)F)c1)NC(=O)OC(C)(C)C (centres undefined),80 to 82 °C
2,Cc1ccc(S(=O)(=O)Cc2ccc([N+](=O)[O-])cc2)cc1,188 to 190 °C
3,CC(CC(=O)NC(C)(C)C#CCl)Oc1cncc(Cl)c1 (centres undefined),78 to 82 °C
4,OCCCc1ncnn1C(c1ccccc1)(c1ccccc1)c1ccccc1,150 to 152 °C
5,CCNC(=O)c1cccc(F)c1Nc1nc(Cl)ncc1Cl,233 to 234 °C
6,Cc1nc2ccc(Cl)cc2c(=O)n1C1CCC(=O)NC1=O (centres undefined),276 to 278 °C
7,CC(C)c1ccc(O[C@@H](Cc2ccc(OCCNC(=O)c3ccc(-c4ccccn4)cc3)cc2)C(=O)O)cc1,100 to 101 °C
8,NC(=O)c1[nH]c2ccccc2c1-c1ccc(NC(=O)Nc2ccccc2)cc1,232 to 234 °C
9,COc1ccc2c(c1)Sc1cc(OC)ccc1N2C,166 to 167 °C
10,CCN(CC)c1ccc(NC(=O)N(C[C@H]2CC[C@H](CN(C(=O)Nc3ccc(N(CC)CC)cc3)C3CCCCC3)CC2)C2CCCCC2)cc1,212 to 217 °C
11,COC(=O)CC[C@H]1CC[C@H](NC(=O)N(NC=O)c2ccc(C#N)cc2)CC1,140 to 142 °C
12,CC(C)OC(=O)Cn1c(=O)n(C)c(=O)n(-c2cc(N3C(=O)C4CS(=O)CCN4C3=O)c(F)cc2Cl)c1=O (centres undefined),175 to 180 °C
13,CCOC(=O)c1ccc(-c2nc(COc3ccc(CO)cc3OC)c(C)o2)o1,105 to 106 °C
14,CCCCCCCCCC(=O)Nc1ccc(S(=O)(=O)Nc2nnc(CO)s2)cc1,69 to 70 °C
15,Cc1cc(Cc2cnc(N)nc2N)cc(C)c1N(C)C,162 to 163 °C
16,CC(C)CN1CCS(=O)(=O)c2sc(S(N)(=O)=O)cc2C1,149 to 151 °C
17,CCSCCc1c(-c2ccccc2)nc(N)n2ncnc12,120 to 122 °C
18,CCOC(=O)CC1=NN(c2ccc(C(=O)O)cc2)C(=O)C1,246 °C
19,CON=C1CCCCC1n1nc(-c2c(-c3ccccc3)nn3ccccc23)ccc1=O (centres undefined),85 to 87 °C
20,CCCc1c(C)[nH]c(C(=O)OCC)c1C,104 to 106 °C
21,Cc1c(NC(=O)c2ccc(C3CCCCC3)cc2)ccc2cc(CN3CCCC3)cnc12,178 to 179 °C
22,CC1=NN(c2ccc(C(=O)O)cc2)C(=O)C1=CNc1ccccc1C(C)C,270 °C
23,O=P(CN=Cc1ccccc1Cl)(c1ccccc1)c1ccccc1,89 °C
24,Nc1nc2c(ncn2COCCOC(=O)CCC(=O)O)c(=O)[nH]1,203 to 207 °C
25,COC(=O)c1ccc(=O)n(Cc2ccc(-c3ccccc3)cc2)c1,130 to 133 °C

row,Structure (SMILES),melting point
1,CCOC(=O)Nc1ccccc1N1CC2(CCN(C)CC2)c2ccccc21,99.5 to 101 °C
2,OCc1conc1-c1ccc(F)c(Br)c1,93 to 94 °C
3,CC12CC3C(=O)OC(C1O)C3(C)O2 (centres undefined),95 to 96.5 °C
4,Cc1cc(-c2cccc(NC(=O)N[C@@H]3c4cc(C#N)ccc4OC(C)(C)[C@H]3O)c2)no1,110 to 120 °C
5,CCOC(=O)C1=C(C)NC(c2ccc(OC)cc2)=C(C(=O)OCC)C1c1cccc([N+](=O)[O-])c1 (centres undefined),166 to 167 °C
6,Cc1onc(-c2ccccc2)c1-c1ccc(S(N)(=O)=O)cc1,171 to 174 °C
7,CCC(=O)N1C(=O)OC(C)(C)[C@@H]1Cc1ccccc1,61 °C
8,C[C@@H](N(CC(=O)O)C(=O)c1ccc(C(F)(F)F)cc1)[C@](O)(Cn1cncn1)c1ccc(Cl)cc1Cl (relative stereo),140 to 142 °C
9,Brc1ccc(OCc2ccc3ccccc3c2)cc1,104 to 106 °C
10,C=C(Cl)C[C@H](CC(=O)O)C(=O)N[C@@H](CC1CCCCC1)[C@@H](O)[C@@H](O)CC(C)C,193 to 196 °C
11,CN(C)CCCOc1ccc(/C=C/C(=O)O)cc1,191 to 193 °C
12,O=C1NCCN(Cc2ccc(Cl)cc2)C1c1ccccc1 (centres undefined),103 to 104 °C
13,CCOC(=O)c1ccc(-c2nn(Cc3ccccc3)c3ccccc23)o1,98 to 99 °C
14,CN1CCC(c2c[nH]c3ccc(-n4ccnc4)cc23)CC1,217 °C
15,COC(=O)c1ccc(Cc2cn(C(C)C)c3ccc(C=C(C)C(=O)O)cc23)c(OC)c1,143 to 145 °C
16,CC1(C)CSCC(=O)N1,151 to 152 °C
17,CCCCNN1C=c2cc(-c3c(Cl)cccc3Cl)c(=O)n(C)c2=NC1,184 to 186 °C
18,CCCCn1c(=S)[nH]c2sccc2c1=O,200 to 203 °C
19,C[C@@H](n1cnc2cc(N3CCOCC3)ccc2c1=O)[C@](O)(Cn1cncn1)c1ccc(F)cc1F,196 to 197 °C
20,CC(C)NC(=O)c1nc(-c2cccc(F)c2)c(-c2ccc(=O)n(C(C)C)n2)s1,104 to 106 °C
21,Cn1cc(C2=C(c3cn(CCCS(C)(=O)=O)c4ccccc34)C(=O)NC2=O)c2ccccc21,225 to 227 °C
22,CCOC(=O)C[C@@H]1CCC/C1=C\Cc1c(O)c2c(c(C)c1CC)COC2=O,95 to 95.7 °C
23,O=C(Cc1ccccc1)c1ccc[nH]1,92 to 94 °C
24,CCCOc1ccc(S(=O)(=O)N2CCN(CC)CC2)cc1-c1nc2cc(N)c(N)cc2c(=O)[nH]1,183 to 186 °C
25,CCOC(=O)c1ccc(-c2nc(COc3ccc(COc4nn(-c5ccccc5)cc4/C=C/P(=O)(OCC)OCC)cc3OC)c(C)o2)o1,129 to 130 °C

row,Structure (SMILES),melting point
1,COC(OC)(c1ccncc1)C(NC(=O)NCCCc1ccccc1)c1ccc(F)cc1 (centres undefined),162 to 166 °C
2,Cc1ccc2c(n1)[nH]c1ccc(C(=O)c3ccccc3)cc12,231 °C
3,O=C(OCc1ccccc1)[C@@H]1CCCN1C(=O)CNC1Cc2ccccc2C1,96 to 98 °C
4,CC(=NNC(=N)N)c1sc(-c2ccc(C3CCCCC3)cc2)nc1C,273 to 276 °C
5,CCc1nc(Cc2ccc(NC(=O)/C=C/c3cnn(C)c3-c3ccc(F)cc3)cc2)cs1,178 to 179 °C
6,O=[N+]([O-])c1cccc(/C=C/c2nc(C3CCCCCCC3)cs2)c1,64 to 65 °C
7,CN(C)c1cccc2c(S(=O)(=O)N3CCC(NC(=O)Nc4ccc(OC(F)(F)F)cc4)CC3)cccc12,102 to 107 °C
8,COc1ccc(Br)c(COc2ccc3ccc(OC)cc3c2)c1,156 to 157 °C
9,CC(=O)Nc1ccc2cc(S(N)(=O)=O)sc2c1,214 to 217 °C
10,O=C(O)CSSc1ccc([N+](=O)[O-])cc1C(Cl)(Cl)Cl,140 °C
11,NC(=S)N1CCc2cccnc21,173 °C
12,CC(=O)N(C)C(=N[N+](=O)[O-])NCc1csc(Cl)n1,105 to 108 °C
13,CCNC(=O)c1cccc([N+](=O)[O-])c1,118 to 120 °C
14,COc1cccc2c(=O)c3c(O)cc(OCC4CO4)cc3oc12 (centres undefined),182 °C
15,CCOCc1nc2c(N)nc(C)c(C)c2n1Cc1cc(-c2ccc(F)cc2)no1,246 to 247 °C
16,N=C(NC(=O)c1ccccc1)N1CCc2[nH]cnc2C1,228 °C
17,O=C(O)C1=CC(CF)(CF)Oc2ccc([N+](=O)[O-])cc21,171 to 172 °C
18,Cc1cc(Cl)nc(C=Cc2ccccc2)n1,71 to 73 °C
19,CN(C)C(=O)Oc1ccc(CO)cc1,76 °C
20,CCOCc1nc2c(c(C)c(C)n3nnnc23)n1CCNC(=O)N1CCOCC1,205 to 207 °C
21,O=C(NC1CN2CCC1CC2)c1cccc2oc(-c3ccc(Cl)cc3)nc12 (centres undefined),194 to 196 °C
22,COc1ccc(C(=O)N2c3ccccc3C(n3c4ccccc4c4ccccc43)=CC2C)cc1OC (centres undefined),184 to 185 °C
23,Cc1cc(C(Cc2ccc(CCCc3nc(-c4ccccc4)oc3C)cc2)C(=O)O)no1 (centres undefined),75 to 80 °C
24,O=c1[nH]c2ccc(CCN3CCN(c4ncnc5ccccc45)CC3)cc2o1,200 °C
25,C1CNCCCNCCCNCCCNC1,84 to 86 °C

row,Structure (SMILES),melting point
1,O=C(Nc1cccc2c(=O)cc(C(=O)O)oc12)c1ccc2c(c1)CC(COCc1ccccc1)O2 (centres undefined),184 to 188 °C
2,CCOC(=O)c1c(CN(CC)CC)nc2sc3c(c2c1-c1ccc(Cl)cc1)CCN(C(=O)c1ccccc1)C3,177 to 178 °C
3,Cc1ccc(S(=O)(=O)N2[C@@H](CCO)CC[C@H]2c2ccc(F)cc2)cc1 (racemic),129 °C
4,O=c1ccn(CCO)c(C(O)c2cccnc2)c1OCc1ccccc1 (centres undefined),182 to 183 °C
5,Brc1ccc(SC2CCN(C(c3ccccc3)(c3ccccc3)c3ccccc3)CC2)cc1,174 to 175 °C
6,CC1(C)[C@H](Cl)CC[C@]2(CI)OC(=O)C[C@H]12,127 to 128 °C
7,c1ccc2c(c1)nc1n2CCCO1,116 to 118 °C
8,O=C(O)CCc1cnoc1-c1ccc2c(c1)OCO2,150 to 151 °C
9,O=c1[nH]c2cc(Br)c3c(c2[nH]c1=O)CN(CCCc1ccccc1)CC3,288 to 293 °C
10,N#Cc1c(-c2ccc(Cl)cc2)[nH]c(C(F)(F)F)c1C(F)(F)F,208 °C
11,CCOC(=O)COc1ccc(C(=O)Nc2cccc(Cl)c2Cl)cc1,126 to 129 °C
12,COc1ccc(C2(C#N)CCC(=NO)CC2)cc1OCC1CC1 (centres undefined),75 to 77 °C
13,CS(=O)(=O)N1CCC(C(=O)N(CCCN2CCC(Cc3ccccc3)CC2)c2ccccc2)CC1,116 to 118 °C
14,Cc1oc(-c2ccc(F)cc2)cc1COc1cccc(CSC(C)(C)C(=O)O)c1,134 to 135 °C
15,Cc1c(OCCCCCCC(=O)N(CCO)C2CCCCC2)ccc2c1CN1CC(=O)NC1=N2,148 to 150 °C
16,CC(C)c1ccc(NC(=O)NCCc2ccccn2)cc1,72 to 73 °C
17,O=c1ncc(Cl)cn1CSc1ccc(F)cc1,179 °C
18,CN(C(=O)CBr)c1ccc(OCC(=O)N[C@@H](CC(N)=O)C(=O)N[C@@H](Cc2ccccc2)[C@H](O)C(=O)N2CCC[C@H]2C(=O)NC(C)(C)C)cc1,116 to 122 °C
19,O=C(C(=O)N1C(=O)CC[C@H]1C(=O)O)c1ccccc1,151 to 152 °C
20,FC(F)Oc1cn(-c2c(Cl)cc(C(F)(F)F)cc2Cl)nc1C(F)(F)F,55.5 to 58 °C
21,Cc1nc(N2CCc3ccccc3CC2)c(C#N)c(=O)n1O,168 to 172 °C
22,O=c1[nH]c(=O)n(C2CC2)c2nc(S(=O)(O)=S)c(F)cc12,300 to 302 °C
23,COCC(=O)c1c[nH]c2ncc(-c3cc(OC)c(OC)c(OC)c3)nc12,229 to 230 °C
24,CS(=O)c1ccc(-n2cnc3ccc(-c4nnc(CCc5cccc(C#N)c5)o4)cc32)cc1 (centres undefined),194 to 195 °C
